Laboratory results from US5011828A, “Immunostimulating guanine derivatives, compositions and methods” (priority 1988, dated 1991).

Columns and labels:
[1] = system: anti-TNP-BSA antibody titers in CBA/CaJ mice; experiment: In vivo anti-TNP-BSA antibody response (ELISA); design: species or system mouse; settings: i.p., 0.2 ml at 5 mg/ml, 37 days
Procedure: FIG. 4 is a graph containing a number of plots that illustrate the in vivo kinetics of enhanced anti-trinitrophenyl bovine serum albumin (TNP-BSA) antibody responses elicited by contacting leukocytes in vivo with a composition containing 7-allyl-8-mercaptoguanosine (7a8MGuo). Here, the guanosine derivative (0.2 ml of 7a8MGuo at 5 mg/ml) was in a vehicle of 100 percent sesame oil (solid line) or 2 percent sesame oil in saline (dotted line) when introduced into the animal.
Three groups of CBA/CaJ mice were utilized. Each group was immunized with the TNP-BSA conjugate. […]
Antibody titers to TNP-BSA were determined over a period of 37 days using standard enzyme-linked immunosorbent assay (ELISA) procedures with TNP-BSA as antigen. […]
CBA/CaJ mice were immunized intraperitonally (i.p.) using a conjugate (TNP-BSA) prepared by the reaction of 2,4,6-trinitrobenzene sulfonic acid (TNBS) and bovine serum albumin (BSA) in a 0.28 molar cacodylate buffer, at pH 6.9. […] Anti-TNP-BSA antibody secretion from each group was thereafter monitored over a period of 37 days by standard enzyme-linked immunosorbant assay (ELISA) techniques using TNP-BSA as antigen.
Injections. […] Anti-TNP-BSA antibody titers were determined using standard techniques.

[2] = system: human peripheral blood lymphocytes (sheep red blood cells as antigen); experiment: Antigen-specific adjuvanticity: direct anti-SRBC plaque forming cells, human system; format: cell-based; settings: for Peak Direct anti-SRBC PFC/Culture: Table 7, second group

C=CCn1c(=S)n([C@@H]2O[C@H](CO)[C@@H](O)[C@H]2O)c2nc(N)[nH]c(=O)c21 [7a8MGuo, 7-(2-Propenyl)-8-thioxoguanosine]
anti-TNP-BSA antibody titer, ratio to control ([1]; 2 percent sesame oil in saline vehicle): about 4 times | anti-TNP-BSA antibody titer, ratio to control ([1]; 100 percent sesame oil vehicle): about 5 times | Peak Direct anti-SRBC PFC/Culture ([2]; person a): 673 PFC/Culture | Peak Direct anti-SRBC PFC/Culture ([2]; person b): 6475 PFC/Culture | Peak Direct anti-SRBC PFC/Culture ([2]; person c): 3058 PFC/Culture | Average 1 Log Plaque Values ([2]; Table 9, human, * = single study): 45,630 ± 28,808 per micromole
